By solubility is commonly meant how much of the substance goes into solution per volume. Read a low solubility as little dissolved substance.

In data set [1] the test system is Escherichia coli strain TG1. The method, then: (§1) Compounds were tested for antimicrobial activity against a variety of bacterial strains that included one or more of the following microorganisms: Escherichia coli strain TG1, Bacillus subtilis strain 168S, Staphylococcus aureus H, Enterococcus faecium STR 207 (Van A resistant phenotype), Enrterococcus faecium STR211 (Vancomycin sensitive phenotype), and Enterococcus faecalis V 583 (Van B resistant phenotype). For the testing of compounds for antimicrobial activity against E. coli and B. subtilis cultures of each bacterial strain were diluted in 2.5 mL of fresh LB broth to approximately 5×10^6 cells/mL for assay. […] The cultures were grown with shaking for up to 16 h at 37° C. for E. coli cultures and 30° C. for B. subtilis cultures. Antibacterial activity was determined from inspection of the turbidity of the different cultures and from determination of the optical density of the cultures at a wavelength of 600 nm. For the testing of compounds for antimicrobial activity against E. Faecium STR 207, E. faecium 211, E. faecalis V 583, and S. aureus H, a different procedure was used. These microorganisms were cultured in brain heart/0.5% yeast extract (BHY) broth and incubated overnight at 37° C. A sample of each culture was then diluted 40-fold in fresh BHY broth and incubated at 37° C. for 1 h. The resultant mid-log phase cultures were diluted to 106 cfu/mL, then added to wells of 96-well polypropylene plates. […] The 96-well plates were covered and incubated at 37° C. overnight. Minimum inhibitory concentrations were determined by inspection of turbidity after incubation.

Data set [2] concerns Bacillus subtilis strain 168S. The method, then: Compounds were tested for antimicrobial activity against a variety of bacterial strains that included one or more of the following microorganisms: Escherichia coli strain TG1, Bacillus subtilis strain 168S, Staphylococcus aureus H, Enterococcus faecium STR 207 (Van A resistant phenotype), Enrterococcus faecium STR211 (Vancomycin sensitive phenotype), and Enterococcus faecalis V 583 (Van B resistant phenotype). For the testing of compounds for antimicrobial activity against E. coli and B. subtilis cultures of each bacterial strain were diluted in 2.5 mL of fresh LB broth to approximately 5×10^6 cells/mL for assay. […] Antibacterial activity was determined from inspection of the turbidity of the different cultures and from determination of the optical density of the cultures at a wavelength of 600 nm. For the testing of compounds for antimicrobial activity against E. Faecium STR 207, E. faecium 211, E. faecalis V 583, and S. aureus H, a different procedure was used. These microorganisms were cultured in brain heart/0.5% yeast extract (BHY) broth and incubated overnight at 37° C. A sample of each culture was then diluted 40-fold in fresh BHY broth and incubated at 37° C. for 1 h. The resultant mid-log phase cultures were diluted to 106 cfu/mL, then added to wells of 96-well polypropylene plates. […] The 96-well plates were covered and incubated at 37° C. overnight. Minimum inhibitory concentrations were determined by inspection of turbidity after incubation.

The test system of data set [3] is Enterococcus faecium STR 211 (Vancomycin sensitive phenotype). The method, then: as §1
Data set [4] has as its system Staphylococcus aureus H. The protocol: as §1
The subject of data set [5] is Enterococcus faecalis V 583 (Van B resistant phenotype). To be noted: E. faecalis V 583. The protocol:
as §1

The test system of data set [6] is Enterococcus faecium STR 207 (Van A resistant phenotype). Conditions: E. faecium STR 207. The method, then: as §1
Data set [7] is described as follows: physchem. Conditions: dimethylsulphoxide.
Method: The 2-thiopyridyl content of the peptide was measured by dissolving it to around 0.03 mM to 0.2 mM in 0.1 M Sodium Borate pH 8.0 and reducing by addition of dithiothreitol to 5 mM. The change in optical density at 343 nm was used to calculate the amount of pyridine 2-thione released using an extinction coefficient at this wavelength of 8080 cm−1 M−1.
Data set [8] concerns sensitised sheep erythrocytes. Description: Haemolysis assay. Format: cell-based. To be noted: 1 hour at 37° C., printed μM or uM, read-out: LC50 (concentration of compound required to give 50% lysis). The protocol:
(§2) Lysis of sensitised sheep erythrocytes was measured using a standard haemolytic assay using a v-bottom microtitre plate format as follows:
(§3) 50 microlitres of a range of concentrations of compound diluted in Hepes buffer were mixed with 100 microlitres of sensitised sheep erythrocytes and then incubated for 1 hour at 37° C. Samples were spun at 1600 rpm at ambient temperature for 3 minutes before transferring 150 microlitres of supernatant to a flat bottom microtitre plate and determining the absorption at 405 or 410 nm. Maximum lysis (Amax) was determined by incubating serum with erythrbcytes in the presence of human serum diluted 1:400 (final concentration in assay mixture) in 0.1 M Hepes/0.15 M NaCl/0.1% gelatin pH 7.4. Background lysis (Ao) was determined by incubating erythrocytes in the absence of any serum or compound, using PBS as a control.

Data set [9] is described as follows: Haemolysis assay. Format: cell-based. To be noted: sensitised sheep erythrocytes, 1 hour at 37° C., printed μM or uM, read-out: LC50 (concentration of compound required to give 50% lysis). The method, then:
as §2, §3

Where [10] appears, read: STR 211 (Vancomycin sensitive phenotype).

Values after ≈ are worked out from the molar mass of the structure shown. Read-outs that look alike come from different tables or passages of the source. Positions of bridges follow the written chain, without caps; N, C: chain ends. Residues, ends and D or L forms follow the SMILES beside them. Chains are numbered I, II in the order given. *: point of attachment. Cys(free,S-linked) = N[C@@H](CS*)C(=O)O; Myristoyl = CCCCCCCCCCCCCC(=O)*; SPy = c1ccc(S*)nc1 Bounds are passed on as bounds.

Take `CCCCCCCCCCCCCC(=O)NCC(=O)N[C@@H](CO)C(=O)N[C@@H](CO)C(=O)N[C@@H](CCCCN)C(=O)N[C@@H](CO)C(=O)N1CCC[C@H]1C(=O)N[C@@H](CO)C(=O)N[C@@H](CCCCN)C(=O)N[C@@H](CCCCN)C(=O)N[C@@H](CCCCN)C(=O)N[C@@H](CCCCN)C(=O)N[C@@H](CCCCN)C(=O)N[C@@H](CCCCN)C(=O)N1CCC[C@H]1C(=O)NCC(=O)N[C@@H](CC(=O)O)C(=O)N[C@@H](CSSC[C@H](NC(=O)[C@H](CC(=O)O)NC(=O)CNC(=O)[C@@H]1CCCN1C(=O)[C@H](CCCCN)NC(=O)[C@H](CCCCN)NC(=O)[C@H](CCCCN)NC(=O)[C@H](CCCCN)NC(=O)[C@H](CCCCN)NC(=O)[C@H](CCCCN)NC(=O)[C@H](CO)NC(=O)[C@@H]1CCCN1C(=O)[C@H](CO)NC(=O)[C@H](CCCCN)NC(=O)[C@H](CO)NC(=O)[C@H](CO)NC(=O)CNC(=O)CCCCCCCCCCCCC)C(N)=O)C(N)=O` [APT540] (I: Myristoyl-GSSKSPSKKKKKKPGDC-NH2 / II: Myristoyl-GSSKSPSKKKKKKPGDC-NH2; disulfide I:17-II:17): the “minimum inhibitory concentration to prevent the growth of E. coli strain TG1” value is 67 µg/mL in data set [1] (strain TG1, 6 h) and 200 µg/mL in [1] (strain TG1, 16 h). The “minimum inhibitory concentration to prevent the growth of B. subtilis strain 168S” value in data set [2] (6 h) and in [2] (24 h) was 7 µg/mL each time.
Regarding `CCCCCCCCCCCCCC(=O)NCC(=O)N[C@@H](CO)C(=O)N[C@@H](CO)C(=O)N[C@@H](CCCCN)C(=O)N[C@@H](CO)C(=O)N1CCC[C@H]1C(=O)N[C@@H](CO)C(=O)N[C@@H](CCCCN)C(=O)N[C@@H](CCCCN)C(=O)N[C@@H](CCCCN)C(=O)N[C@@H](CCCCN)C(=O)N[C@@H](CCCCN)C(=O)N[C@@H](CCCCN)C(=O)N1CCC[C@H]1C(=O)NCC(=O)N[C@@H](CC(=O)O)C(=O)N[C@@H](CSSC[C@H](N)C(=O)O)C(N)=O` [APT541] (Myristoyl-GSSKSPSKKKKKKPGDC(Cys(free,S-linked))-NH2), the results for the minimum inhibitory concentration in [3] (setting [10]), in data set [4] (H) and in data set [5] were 64 µg/mL (≈ 30.2 µM), 64 µg/mL (≈ 30.2 µM) and 256 µg/mL (≈ 121 µM), respectively.
Turning to `CCCCCCCCCCCCCC(=O)NCC(=O)N[C@@H](CO)C(=O)N[C@@H](CO)C(=O)N[C@@H](CCCCN)C(=O)N[C@@H](CO)C(=O)N1CCC[C@H]1C(=O)N[C@@H](CO)C(=O)N[C@@H](CCCCN)C(=O)N[C@@H](CCCCN)C(=O)N[C@@H](CCCCN)C(=O)N[C@@H](CCCCN)C(=O)N[C@@H](CCCCN)C(=O)N[C@@H](CCCCN)C(=O)N1CCC[C@H]1C(=O)NCC(=O)N[C@@H](CC(=O)O)C(=O)N[C@@H](CSSc1ccccn1)C(N)=O` [APT542] (Myristoyl-GSSKSPSKKKKKKPGDC(SPy)-NH2), the minimum inhibitory concentration in data set [6] is 64 µg/mL (≈ 30.4 µM); in data set [3] (setting [10]), 32 µg/mL (≈ 15.2 µM); in data set [4] (H) it was 64 µg/mL (≈ 30.4 µM); in data set [5] it was 256 µg/mL (≈ 121 µM). The “minimum inhibitory concentration to prevent the growth of E. coli strain TG1” value is 22 µg/mL in data set [1] (strain TG1, 6 h) and 67 µg/mL in data set [1] (strain TG1, 16 h). Also, the “minimum inhibitory concentration to prevent the growth of B. subtilis strain 168S” value worked out at 3 µg/mL in data set [2] (6 h) and 22 µg/mL in data set [2] (24 h). In [7], the solubility is not below 10000 µg/mL.
As to `CN[C@H](CC(C)C)C(=O)N[C@H]1C(=O)N[C@@H](CC(N)=O)C(=O)N[C@H]2C(=O)N[C@H]3C(=O)N[C@H](C(=O)N[C@H](C(=O)NCCSSc4ccccn4)c4cc(O)cc(O)c4-c4cc3ccc4O)[C@H](O)c3ccc(c(Cl)c3)Oc3cc2cc(c3O[C@@H]2O[C@H](CO)[C@@H](O)[C@H](O)[C@H]2O[C@H]2C[C@](C)(N)[C@H](O)[C@H](C)O2)Oc2ccc(cc2Cl)[C@H]1O.Cl` [APT2033], the minimum inhibitory concentration turned out to be 256 µg/mL in [6], 2 µg/mL in data set [3] (E. faecium STR 211), 4 µg/mL in [4] (S. aureus H) and 32 µg/mL in data set [5]. Moreover, the CC50 in data set [8] was more than 166 µM.
For `CN[C@H](CC(C)C)C(=O)N[C@H]1C(=O)N[C@@H](CC(N)=O)C(=O)N[C@H]2C(=O)N[C@H]3C(=O)N[C@H](C(=O)N[C@H](C(=O)NCCS)c4cc(O)cc(O)c4-c4cc3ccc4O)[C@H](O)c3ccc(c(Cl)c3)Oc3cc2cc(c3O[C@@H]2O[C@H](CO)[C@@H](O)[C@H](O)[C@H]2O[C@H]2C[C@](C)(N)[C@H](O)[C@H](C)O2)Oc2ccc(cc2Cl)[C@H]1O.Cl` [APT2035], the minimum inhibitory concentration in data set [3] (E. faecium STR 211) was 2 µg/mL; in [4] (S. aureus H) it was 8 µg/mL; in [5] it was 16 µg/mL. Also, in [8], the CC50 is more than 166 µM.
`CCCCCCCCCCCCCC(=O)NCC(=O)N[C@@H](CO)C(=O)N[C@@H](CO)C(=O)N[C@@H](CCCCN)C(=O)N[C@@H](CO)C(=O)N1CCC[C@H]1C(=O)N[C@@H](CO)C(=O)N[C@@H](CCCCN)C(=O)N[C@@H](CCCCN)C(=O)N[C@@H](CCCCN)C(=O)N[C@@H](CCCCN)C(=O)N[C@@H](CCCCN)C(=O)N[C@@H](CCCCN)C(=O)N1CCC[C@H]1C(=O)NCC(=O)N[C@@H](CC(=O)O)C(=O)N[C@@H](CSSCCNC(=O)[C@H]1NC(=O)[C@H]2NC(=O)[C@H](NC(=O)[C@@H]3NC(=O)[C@H](CC(N)=O)NC(=O)[C@H](NC(=O)[C@@H](CC(C)C)NC)[C@H](O)c4ccc(c(Cl)c4)Oc4cc3cc(c4O[C@@H]3O[C@H](CO)[C@@H](O)[C@H](O)[C@H]3O[C@H]3C[C@](C)(N)[C@H](O)[C@H](C)O3)Oc3ccc(cc3Cl)[C@H]2O)c2ccc(O)c(c2)-c2c(O)cc(O)cc21)C(N)=O` [APT2036]: the minimum inhibitory concentration worked out at 8 µg/mL (≈ 2.28 µM) in data set [6], 8 µg/mL (≈ 2.28 µM) in data set [3] (E. faecium STR 211), 4 µg/mL (≈ 1.14 µM) in data set [4] (S. aureus H) and 8 µg/mL (≈ 2.28 µM) in data set [5]. In addition, the CC50 at 1 hour in data set [9] was 71 µM.
In the case of `CCCCCCCCCCCCCC(=O)NCC(=O)N[C@@H](CO)C(=O)N[C@@H](CO)C(=O)N[C@@H](CCCCN)C(=O)N[C@@H](CO)C(=O)N1CCC[C@H]1C(=O)N[C@@H](CO)C(=O)N[C@@H](CCCCN)C(=O)N[C@@H](CC(=O)O)C(=O)N[C@@H](CCCCN)C(=O)N[C@@H](CC(=O)O)C(=O)N[C@@H](CCCCN)C(=O)N[C@@H](CC(=O)O)C(=O)N1CCC[C@H]1C(=O)NCC(=O)N[C@@H](CC(=O)O)C(=O)N[C@@H](CSSCCNC(=O)[C@H]1NC(=O)[C@H]2NC(=O)[C@H](NC(=O)[C@@H]3NC(=O)[C@H](CC(N)=O)NC(=O)[C@H](NC(=O)[C@@H](CC(C)C)NC)[C@H](O)c4ccc(c(Cl)c4)Oc4cc3cc(c4O[C@@H]3O[C@H](CO)[C@@H](O)[C@H](O)[C@H]3O[C@H]3C[C@](C)(N)[C@H](O)[C@H](C)O3)Oc3ccc(cc3Cl)[C@H]2O)c2ccc(O)c(c2)-c2c(O)cc(O)cc21)C(N)=O` [APT2041], the minimum inhibitory concentration amounted to 16 µg/mL (≈ 4.62 µM) in data set [6], 4 µg/mL (≈ 1.15 µM) in data set [3] (E. faecium STR 211), 8 µg/mL (≈ 2.31 µM) in data set [4] (S. aureus H) and 16 µg/mL (≈ 4.62 µM) in data set [5]. In addition, the CC50 at 1 hour in data set [9] came to 4.5 µM.

For the origin of these results see patent US7078380B2, “Antibacterial agents comprising conjugates of glycopeptides and peptidic membrane associating elements” (priority 2000, dated 2006).
